Experimental data: patent US10201158B2, “Plant disease control composition and method for controlling plant disease by application of same” (MITSUI CHEMICALS AGRO, INC., priority 2014, dated 2019)
Like-named read-outs stand apart in the source and are kept apart here.

Key:
Sphaerotheca fuliginea = assay: Cucumber powdery mildew preventive test; assay type: in vivo; conditions: in vivo
Experimental: In a greenhouse, cucumber (variety: Sagamihanshiro) planted in a plastic pot having a diameter of 5 cm was grown to the 3rd to 5th-leaf stage. Spray was carried out in the same manner as in Test example 1, and 3 days after the spray, a conidia suspension prepared from Sphaerotheca fuliginea were inoculated on the leaf surface. After inoculation, the pots were placed in a thermostatic greenhouse (20 to 25° C.), and controlling effects were examined after 7 days from the inoculation. In the examination, a ratio of lesion area occupied per one leaf of cucumber was determined according to the same index as in Test example 1, and the control value and the theoretical value according to Colby's formula were similarly calculated.
Wettable powder prepared in compliance with Comparative Preparation Example 4 containing the compounds indicated in Table 7-9 were sprayed to the cucumber leaves, a conidiospore suspension prepared from Sphaerotheca fuliginea was inoculated onto the plants, and the controlling effects were examined in a manner similar to Test Example 6.

Pyricularia oryzae = assay type: in vivo; conditions: Table 3-4, group b ingredient alone
Botrytis cinerea = conditions: in vivo
[1] = treatment concentration 10 + 10 ppm
[2] = treatment concentration 10 + 2 ppm

Molecule | Preventive value (Sphaerotheca fuliginea) | Preventive value (Botrytis cinerea) | also measured
CN1OC(c2ccc(Cl)cc2)CC1(C)c1cccnc1 (stereo not drawn) [Pyrisoxazole (b-103), Pyrisoxazole] | 33 |  | 
Cn1cc(C(=O)Nc2ccc(F)cc2-c2ccc(Cl)c(Cl)c2)c(C(F)F)n1 [Bixafen (b-4), Bixafen] |  | 33 | Preventive value (Pyricularia oryzae; [1]): 33
C[Si](Cn1cncn1)(c1ccc(F)cc1)c1ccc(F)cc1 [Flusilazole (b-31), Flusilazole] | 33 | 17 | 
Fc1ccc(C2(Cn3nc[nH]c3=S)OC2c2ccccc2Cl)c(F)c1 (stereo not drawn) [Compound of (V) (b-36)] | 33 | 40 | 
COC(=O)Nc1nc2ccccc2[nH]1 [Carbendazim (b-59), Carbendazim] |  | 40 | 
CCCC(Cn1cncn1)c1ccc(Cl)cc1Cl (stereo not drawn) [Penconazole (b-32), Penconazole] |  | 17 | 
OC(Cn1cncn1)(c1ccc(F)cc1)c1ccccc1F (stereo not drawn) [Flutriafol (b-34), Flutriafol] | 40 | 33 | 
c1ccc2[nH]c(-c3cscn3)nc2c1 [Thiabendazole (b-60), Thiabendazole] | 40 | 57 | 
N#Cc1ccccc1NC(=O)c1snc(Cl)c1Cl [Isotianil(b-46)] | 33 |  | 
Cc1nn(C)c(Nc2c(F)cc(Cl)cc2F)c1-c1ccc(F)cc1Cl [Compound of formula (XV)-1 (b-89)] | 40 | 40 | 
CCCCCCCCCCCCCN1CC(C)OC(C)C1 (stereo not drawn) [Tridemorph (b-66), Tridemorph] | 33 | 17 | 
OP(O)O [Phosphorous acid (b-105), Phosphorous acid] | 33 | 33 | 
CC(C)(C)C(O)C(Oc1ccc(Cl)cc1)n1cncn1 (stereo not drawn) [Triadimenol (b-33), Triadimenol] |  | 17 | Preventive value (Pyricularia oryzae; treatment concentration printed 10 + 250 ppm): 33
Cc1nc(C(F)(F)F)c(C(=O)Nc2c(Br)cc(OC(F)(F)F)cc2Br)s1 [Thifluzamide (b-42), Thifluzamide] |  | 23 | Control value (Sphaerotheca fuliginea): 73
CCCC1COC(Cn2cncn2)(c2ccc(Cl)cc2Cl)O1 (stereo not drawn) [Propiconazole (b-27), Propiconazole] | 40 | 33 | 
CCCN(CCOc1c(Cl)cc(Cl)cc1Cl)C(=O)n1ccnc1 [Prochloraz (b-21), Prochloraz] |  | 17 | 
O=C(NCCc1ncc(C(F)(F)F)cc1Cl)c1ccccc1C(F)(F)F [Fluopyram (b-43), Fluopyram] |  | 40 | Preventive value (Pyricularia oryzae; [1]): 40
CCCOc1nc2ccc(I)cc2c(=O)n1CCC [Proquinazid (b-100), Proquinazid] | 40 | 17 | 
CC(C)C1C2CCC1c1c(NC(=O)c3cn(C)nc3C(F)F)cccc12 (stereo not drawn) [Isopyrazam (b-7), Isopyrazam] |  | 40 | Control value (Sphaerotheca fuliginea): 40
O=C1c2ccccc2C(=O)N1SC(Cl)(Cl)Cl [Folpet (b-70), Folpet] | 33 | 73 | 

Molecule | Preventive value (Sphaerotheca fuliginea) | Preventive value (Botrytis cinerea) | also measured
CCN(C)/C=N/c1cc(C)c(Oc2nc(Cc3ccc(Cl)cc3)ns2)cc1C [Compound of formula (XVII) (b-91)] | 40 | 40 | 
CC(C)c1ccc(Cl)cc1CN(C(=O)c1c(C(F)F)nn(C)c1F)C1CC1 [Compound of formula (IV) (b-9)] | 60 | 40 | 
O=c1c2cc(F)ccc2nc(-n2cncn2)n1-c1ccc(Cl)cc1Cl [Fluquinconazole (b-30), Fluquinconazole] | 47 | 33 | 
CC(C1CC1)C(O)(Cn1cncn1)c1ccc(Cl)cc1 (stereo not drawn) [Cyproconazole (b-28), Cyproconazole] | 47 | 17 | 
Fc1ccc(Oc2ccnc3cc(Cl)cc(Cl)c23)cc1 [Quinoxyfen (b-63), Quinoxyfen] | 60 | 17 | 
CCCC(Cn1cncn1)c1ccc(Cl)cc1Cl (stereo not drawn) [Penconazole(b-32)] | 47 |  | 
CC(Cc1ccc(C(C)(C)C)cc1)CN1CCCCC1 (stereo not drawn) [Fenpropidin (b-102), Fenpropidin] | 40 | 17 | 
CCCN(CC)CC1COC2(CCC(C(C)(C)C)CC2)O1 (stereo not drawn) [Spiroxamine (b-101), Spiroxamine] | 33 | 17 | 
Cc1nn(C)c(F)c1C(=O)Nc1ccccc1C(C)CC(C)C (stereo not drawn) [Penflufen (b-5), Penflufen] |  | 47 | Control value (Sphaerotheca fuliginea): 73
Cc1ccc2nc3sc(=O)sc3nc2c1 [Chinomethionat (b-74), Chinomethionat] | 50 | 17 | 
CC1(C)CCC(Cc2ccc(Cl)cc2)C1(O)Cn1cncn1 (stereo not drawn) [Metconazole (b-26), Metconazole] | 50 | 40 | 
OC(Cc1ccccc1Cl)(Cn1nc[nH]c1=S)C1(Cl)CC1 (stereo not drawn) [Prothioconazole (b-23), Prothioconazole] |  | 33 | Preventive value (Pyricularia oryzae; [1]): 33
COC(=O)NCc1cc(/C(C)=N/OCc2cccc(C)n2)ccc1Cl [Pyribencarb (b-98), Pyribencarb] |  | 40 | 
CCCN(CCOc1c(Cl)cc(Cl)cc1Cl)C(=O)n1ccnc1 [Prochloraz(b-21)] | 50 |  | 
Metiram [Metiram (b-67)] | 33 |  | 
CON=C(C(=O)OC)c1ccccc1CON=C(C)c1cccc(C(F)(F)F)c1 [Trifloxystrobin (b-55), Trifloxystrobin] |  | 33 | Preventive value (Pyricularia oryzae; [2]): 57
COC(=O)N(OC)c1ccccc1COc1ccn(-c2ccc(Cl)cc2)n1 [Pyraclostrobin (b-19), Pyraclostrobin] |  |  | Preventive value (Pyricularia oryzae; [2]): 40
N#Cc1ccccc1NC(=O)c1snc(Cl)c1Cl [Isotianil (b-46), Isotianil] |  |  | Preventive value (Pyricularia oryzae; [1]): 50
CCCCNC(=O)n1c(NC(=O)OC)nc2ccccc21 [Benomyl (b-58), Benomyl] | 50 | 60 | 
Cn1cc(C(=O)Nc2ccccc2C2CC2C2CC2)c(C(F)F)n1 (stereo not drawn) [Sedaxane (b-6), Sedaxane] |  | 50 | Control value (Sphaerotheca fuliginea): 40

Molecule | Preventive value (Sphaerotheca fuliginea) | Preventive value (Botrytis cinerea) | also measured
CCCCC(C#N)(Cn1cncn1)c1ccc(Cl)cc1 (stereo not drawn) [Myclobutanil (b-35), Myclobutanil] | 33 | 17 | 
CN(C)C(=S)SSC(=S)N(C)C [Thiuram (b-68), Thiuram] | 33 |  | 
CC1COC(Cn2cncn2)(c2ccc(Oc3ccc(Cl)cc3)cc2Cl)O1 (stereo not drawn) [Difenoconazole (b-29), Difenoconazole] | 40 | 33 | 
CC(C)C1CCC(Cc2ccc(Cl)cc2)C1(O)Cn1cncn1 (stereo not drawn) [Ipconazole (b-25), Ipconazole] | 50 | 40 | 
Cc1cc(C2CC2)nc(Nc2ccccc2)n1 [Cyprodinil (b-61), Cyprodinil] |  | 50 | Control value (Sphaerotheca fuliginea): 40
Propineb [Propineb (b-69)] | 17 | 33 | 
OC(c1cccnc1)c1c(-c2ccc(Cl)cc2F)noc1-c1ccc(F)cc1F (stereo not drawn) [Compound of (XVIII) (b-92)] | 40 | 50 | 
CC(Cc1ccc(C(C)(C)C)cc1)CN1C[C@@H](C)O[C@@H](C)C1 (stereo partly drawn) [Fenpropimorph (b-65), Fenpropimorph] | 33 | 17 | 
FC(F)C(F)(F)OCC(Cn1cncn1)c1ccc(Cl)cc1Cl (stereo not drawn) [Tetraconazole (b-22), Tetraconazole] | 50 | 40 | 
CNC(=O)/C(=N/OC)c1ccccc1Oc1ccccc1 [Metominostrobin (b-54), Metominostrobin] |  |  | Preventive value (Pyricularia oryzae; [2]): 40
COc1cc(C)c(C(=O)c2c(OC)ccc(Br)c2C)c(OC)c1OC [Metrafenone (b-82), Metrafenone] | 40 | 0 | 
C=CCOC(Cn1ccnc1)c1ccc(Cl)cc1Cl (stereo not drawn) [Imazalil (b-20), Imazalil] | 40 | 17 | 
CO/C=C(/C(=O)OC)c1ccccc1COc1cccc(C(F)(F)F)n1 [Picoxystrobin (b-16), Picoxystrobin] |  |  | Preventive value (Pyricularia oryzae; [2]): 50
Fc1ccc([C@]2(Cn3cncn3)O[C@H]2c2ccccc2Cl)cc1 (racemic) [Epoxiconazole (b-24), Epoxiconazole] | 40 | 33 | 
S1SSSSSSS1 [Sulfur (b-96), Sulfur] | 73 | 0 | 
COc1ccccc1N1CCS/C1=C(/C#N)Sc1cc(C(F)(F)F)ccc1F [Flutianil (b-77), Flutianil] | 67 | 17 | 
COc1cc(C)c(C(=O)c2c(OC)ncc(Cl)c2C)c(OC)c1OC [Pyriofenone (b-83), Pyriofenone] | 40 | 33 | 
CON(C(=O)c1cn(C)nc1C(F)F)C(C)Cc1c(Cl)cc(Cl)cc1Cl (stereo not drawn) [Compound of formula (III) (b-8)] | 60 | 40 | 
CC1=C(C(=O)Nc2ccccc2)SCCO1 [Carboxin (b-41), Carboxin] |  | 17 | Control value (Sphaerotheca fuliginea): 40
C=CCSC(=O)n1c(N)c(-c2ccccc2C)c(=O)n1C(C)C [Fenpyrazamine (b-99), Fenpyrazamine] |  |  | Control value (Sphaerotheca fuliginea): 33
